Data from patent publication US12150998B2, “Bicyclic peptide ligands specific for P-selectin” (BicycleTx Limited, priority 2021, dated 2024).
Read-outs that look alike come from different tables or passages of the source. Starred links: 1 amine or outer side, 2 acyl side, 3 side chain; linkers in the order of their positions; H or OH if unused. Positions of bridges follow the written chain, without caps; N, C: chain ends. Non-standard residues stand in square brackets, D forms with d. Residues, ends and D or L forms follow the SMILES beside them. Chains are numbered I, II in the order given. X3 = O=C(CCOCCN(CCOCCC(=O)NCCOCCOCCOCCOCCOCCOCCOCCOCCOCCOCCOCCOCCOCCOCCOCCOCCOCCOCCOCCOCCOCCOCCOCCn1cc(CCC(=O)[*:2])nn1)CCOCCC(=O)NCCOCCOCCOCCOCCOCCOCCOCCOCCOCCOCCOCCOCCOCCOCCOCCOCCOCCOCCOCCOCCOCCOCCOCCn1cc(CCC(=O)[*:3])nn1)NCCOCCOCCOCCOCCOCCOCCOCCOCCOCCOCCOCCOCCOCCOCCOCCOCCOCCOCCOCCOCCOCCOCCOCCn1cc(CCC(=O)[*:1])nn1; X4 = O=C(CCOCCN(CCOCCC(=O)NCCOCCOCCOCCOCCOCCOCCOCCOCCOCCOCCn1cc(CCC(=O)[*:2])nn1)CCOCCC(=O)NCCOCCOCCOCCOCCOCCOCCOCCOCCOCCOCCn1cc(CCC(=O)[*:3])nn1)NCCOCCOCCOCCOCCOCCOCCOCCOCCOCCOCCn1cc(CCC(=O)[*:1])nn1; TATA = O=C(CC[*:1])N1CN(C(=O)CC[*:2])CN(C(=O)CC[*:3])C1; X1 = O=C(C[*:1])N1CCN(C(=O)C[*:2])CCN(C(=O)C[*:3])CC1; 1Nal = N[C@@H](Cc1cccc2ccccc12)C(=O)O

What was measured:
[1] = molecular target: T1, human P-Selectin protein (Homo sapiens, UniProt P16109); assay: SPR binding assay (Biacore); conditions: recombinant biotinylated human P-Selectin, 25° C.
T1 sequence (P16109 42-830): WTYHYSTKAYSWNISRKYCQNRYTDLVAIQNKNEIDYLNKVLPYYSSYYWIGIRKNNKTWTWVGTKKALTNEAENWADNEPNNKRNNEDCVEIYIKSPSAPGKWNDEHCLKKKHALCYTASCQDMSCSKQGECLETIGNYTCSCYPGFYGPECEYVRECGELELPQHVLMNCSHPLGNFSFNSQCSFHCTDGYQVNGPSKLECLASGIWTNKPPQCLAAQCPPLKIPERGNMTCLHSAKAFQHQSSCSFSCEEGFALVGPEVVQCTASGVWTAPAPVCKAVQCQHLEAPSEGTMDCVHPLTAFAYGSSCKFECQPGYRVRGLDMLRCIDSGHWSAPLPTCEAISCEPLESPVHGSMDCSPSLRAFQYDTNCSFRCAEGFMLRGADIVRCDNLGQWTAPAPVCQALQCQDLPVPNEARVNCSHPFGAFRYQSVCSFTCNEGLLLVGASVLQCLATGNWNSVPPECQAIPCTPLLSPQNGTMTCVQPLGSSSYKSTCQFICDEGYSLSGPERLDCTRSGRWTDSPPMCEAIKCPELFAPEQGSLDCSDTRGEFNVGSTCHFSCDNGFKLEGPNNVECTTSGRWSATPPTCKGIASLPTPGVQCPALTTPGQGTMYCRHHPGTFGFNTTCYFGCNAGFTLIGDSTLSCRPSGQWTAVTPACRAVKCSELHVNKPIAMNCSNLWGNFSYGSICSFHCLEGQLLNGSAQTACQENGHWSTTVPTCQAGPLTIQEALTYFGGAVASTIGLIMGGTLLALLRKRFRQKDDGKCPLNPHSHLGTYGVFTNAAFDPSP
Protocol: Biacore experiments were performed to determine ka (M−1s−1), kd (s−1), KD (nM) values of monomeric peptides binding to human Selectin proteins. Recombinant biotinylated human P-Selectin protein was used. For analysis of binding, either a Biacore 3000 or 5200 instrument was used with a CMS sensor chip (GE Healthcare). For sensor chip surface preparation, streptavidin was immobilized on the chip using standard amine-coupling chemistry at 25° C. with HBS-N (10 mM HEPES, 0.15 M NaCl, pH 7.4) as the running buffer. The carboxymethyl dextran surface was activated with a 12 min injection of a 1:1 ratio of 0.4 M 1-ethyl-3-(3-dim ethyl aminopropyl) carbodiimide hydrochloride (EDC)/0.1 M N-hydroxy succinimide (NHS) at a flow rate of 10 μl/min. For capture of streptavidin, protein was diluted to 0.2 mg/ml in 10 mM sodium acetate (pH 4.5) and captured by injecting 70 μl onto the activated chip surface. Residual activated groups were blocked with a 7 min injection of 1 M ethanolamine (pH 8.5). Biotinylated protein stock was diluted 1:100 in HBS-N and captured on one flow cell at 5 μl/min to a level of 1000-1500 RU. Buffer was changed to PBS/0.05% Tween 20 and a dilution series of the peptides was prepared in this buffer with a final DMSO concentration of 0.5%. The top concentration of the analyte varied from 200 nM to 50 μM; depending on predicted affinity of the interaction. In all cases a titration was performed with either seven 2-fold dilutions or five 3-fold dilutions. The SPR analysis was run at 25° C. with a flow rate of 50-80 μl/min with 60 seconds association and a suitable disassociation period (100-900 seconds). Data were corrected for DMSO excluded volume effects. All data were double-referenced for blank injections and reference surface using standard processing procedures and data processing and kinetic fitting were performed using Scrubber software, version 2.0c (BioLogic Software). Data were fitted using mass transport model allowing for mass transport effects where appropriate.

[2] = molecular target: T2, P-Selectin:PSGL1 interaction (Homo sapiens, UniProt P16109); assay: Receptor ligand inhibition assay (P-Selectin binding to HL-60 cells); type: cell-based; conditions: geomean of n=3
T2 construct: host or cells: HL-60 cells (ATCC, CCL-240) supply the PSGL-1 partner endogenously
T2 sequence (P16109 42-771 limits assumed): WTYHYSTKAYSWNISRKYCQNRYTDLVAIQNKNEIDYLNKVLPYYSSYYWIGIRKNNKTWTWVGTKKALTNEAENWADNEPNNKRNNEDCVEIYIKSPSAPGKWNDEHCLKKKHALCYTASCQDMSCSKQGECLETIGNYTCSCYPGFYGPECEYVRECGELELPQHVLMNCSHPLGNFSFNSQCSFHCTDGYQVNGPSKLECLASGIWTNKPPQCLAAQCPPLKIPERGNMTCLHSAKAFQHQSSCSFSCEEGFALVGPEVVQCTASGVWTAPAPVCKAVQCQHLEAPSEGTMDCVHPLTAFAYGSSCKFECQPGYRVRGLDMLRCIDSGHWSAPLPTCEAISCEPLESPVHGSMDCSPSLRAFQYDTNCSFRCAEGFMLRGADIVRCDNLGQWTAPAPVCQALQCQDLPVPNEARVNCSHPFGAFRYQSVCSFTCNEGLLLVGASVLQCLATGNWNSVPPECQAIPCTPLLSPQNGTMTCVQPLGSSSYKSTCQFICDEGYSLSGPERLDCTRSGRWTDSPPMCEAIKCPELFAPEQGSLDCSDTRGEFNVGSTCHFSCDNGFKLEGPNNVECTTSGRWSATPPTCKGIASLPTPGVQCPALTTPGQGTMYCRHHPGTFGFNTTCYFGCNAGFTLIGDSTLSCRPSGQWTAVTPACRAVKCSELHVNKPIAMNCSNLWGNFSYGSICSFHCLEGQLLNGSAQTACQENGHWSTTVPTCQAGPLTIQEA
Protocol: Bicycle test samples, SelG1 (Crizanlizumab) were serially diluted maintaining 0.5% DMSO in assay buffer (25 mM HEPES, 121 mM NaCl, 5.4 mM KCl, 0.8 mM MgCl2, 1.8 mM CaCl2), 6 mM […], 5.5 mM glucose, 1% BSA, pH7.4) and transferred to 384 well clear bottom plates (Corning, 3712) with a final volume of 6 μL. […], of P-Selectin in imaging buffer (25 mM HEPES, 121 mM NaCl, 5.4 mM KCl, 0.8 mM MgCl2, 1.8 mM CaCl2), 6 mM […], 5.5 mM glucose, pH7.4) was added to give a 5 nM final concentration and incubated at room temperature for 15 minutes. HL-60 cells (ATCC, CCL-240) mixed with 1 μg/mL far red labelled wheat germ agglutinin (WGA, ThermoFisher W21404) and 1 μg/mL AlexaFluor 488-streptavidin (Invitrogen S11223) were added to the plate and incubated for 2 hours at room temperature in the absence of light. Staining and antibody binding were quantified by simultaneously scanning the microplates with 488 nm and 640 nm lasers on a mirrorball microplate cytometer, AF488 on FL2 triggering on AF647-WGA on FL4. Data was analysed in Dotmatics, using a four parameter logistic fit to generate IC50 values and % response. Percent inhibition was calculated using 100−% response at top concentration.

[3] = read-out: Affinity KD determined by SPR

Kd [1, 3] | IC50 ([2]; 5 nM P-Selectin, HL-60 cells, read-out: IC50) | Inhibition at top concentration ([2]; 100−% response at top concentration) | Compound | Kd ([1]; Affinity KD determined by SPR)
– | – | – | CSCC[C@@H]1NC(=O)[C@H](Cc2ccc(O)cc2)NC(=O)[C@@H](NC(=O)[C@H](C)NC(C)=O)CSCCC(=O)N2CN3CN(C2)C(=O)CCSC[C@H](NC(=O)[C@H](Cc2c[nH]c4ccccc24)NC(=O)[C@H](CCC(=O)O)NC1=O)C(=O)N[C@@H](CC(=O)O)C(=O)N[C@@H](C(C)C)C(=O)N[C@@H]([C@@H](C)O)C(=O)N[C@@H](CC(=O)O)C(=O)N[C@@H](Cc1ccc(O)cc1)C(=O)NCC(=O)N[C@H](C(=O)N[C@@H](CCCCNC(=O)CCc1cn(CCOCCOCCOCCOCCOCCOCCOCCOCCOCCOCCOCCOCCOCCOCCOCCOCCOCCOCCOCCOCCOCCOCCOCCNC(=O)CCOCC(COCCC(=O)NCCOCCOCCOCCOCCOCCOCCOCCOCCOCCOCCOCCOCCOCCOCCOCCOCCOCCOCCOCCOCCOCCOCCOCCn2cc(CCC(=O)NCCCC[C@H](NC(=O)[C@@H]4CSCCC(=O)N5CN6CN(C5)C(=O)CCSC[C@H](NC(=O)[C@H](Cc5c[nH]c7ccccc57)NC(=O)[C@H](CCC(=O)O)NC(=O)[C@H](CCSC)NC(=O)[C@H](Cc5ccc(O)cc5)NC(=O)[C@@H](NC(=O)[C@H](C)NC(C)=O)CSCCC6=O)C(=O)N[C@@H](CC(=O)O)C(=O)N[C@@H](C(C)C)C(=O)N[C@@H]([C@@H](C)O)C(=O)N[C@@H](CC(=O)O)C(=O)N[C@@H](Cc5ccc(O)cc5)C(=O)NCC(=O)N4)C(N)=O)nn2)(COCCC(=O)NCCOCCOCCOCCOCCOCCOCCOCCOCCOCCOCCOCCOCCOCCOCCOCCOCCOCCOCCOCCOCCOCCOCCOCCn2cc(CCC(=O)NCCCC[C@H](NC(=O)[C@@H]4CSCCC(=O)N5CN6CN(C5)C(=O)CCSC[C@H](NC(=O)[C@H](Cc5c[nH]c7ccccc57)NC(=O)[C@H](CCC(=O)O)NC(=O)[C@H](CCSC)NC(=O)[C@H](Cc5ccc(O)cc5)NC(=O)[C@@H](NC(=O)[C@H](C)NC(C)=O)CSCCC6=O)C(=O)N[C@@H](CC(=O)O)C(=O)N[C@@H](C(C)C)C(=O)N[C@@H]([C@@H](C)O)C(=O)N[C@@H](CC(=O)O)C(=O)N[C@@H](Cc5ccc(O)cc5)C(=O)NCC(=O)N4)C(N)=O)nn2)COCCC(=O)NCCOCCOCCOCCOCCOCCOCCOCCOCCOCCOCCOCCOCCOCCOCCOCCOCCOCCOCCOCCOCCOCCOCCOCCn2cc(CCC(=O)NCCCC[C@H](NC(=O)[C@@H]4CSCCC(=O)N5CN6CN(C5)C(=O)CCSC[C@H](NC(=O)[C@H](Cc5c[nH]c7ccccc57)NC(=O)[C@H](CCC(=O)O)NC(=O)[C@H](CCSC)NC(=O)[C@H](Cc5ccc(O)cc5)NC(=O)[C@@H](NC(=O)[C@H](C)NC(C)=O)CSCCC6=O)C(=O)N[C@@H](CC(=O)O)C(=O)N[C@@H](C(C)C)C(=O)N[C@@H]([C@@H](C)O)C(=O)N[C@@H](CC(=O)O)C(=O)N[C@@H](Cc5ccc(O)cc5)C(=O)NCC(=O)N4)C(N)=O)nn2)nn1)C(N)=O)CSCCC3=O [BCY5465] | 140 nM
< 10 nM | > 36.8 nM | 36% | CC(C)C[C@@H]1NC(=O)[C@H](CO)NC(=O)[C@@H]2CCCN2C(=O)[C@H](C(C)C)NC(=O)[C@H](CC(=O)O)NC(=O)[C@@H]2CSCC(=O)N3CCN(CCN(CC3)C(=O)CSC[C@@H](C(=O)N[C@@H](C)C(N)=O)NC(=O)[C@@H]3CCCN3C1=O)C(=O)CSC[C@H](NC(=O)[C@H](C)N)C(=O)N[C@@H](CC(=O)O)C(=O)N[C@@H](C)C(=O)N[C@@H](CC(=O)O)C(=O)N[C@@H](Cc1cccc3ccccc13)C(=O)N2 [BCY12027, A-(SEQ ID NO: 2)-A] (H-ACDAD[1Nal]CDVPSLPCA-NH2; linker 2-7-14 via X1; N-terminus assumed) | –
– | – | – | I: Ac-ACYMEWCDVTDYGCK-NH2 / II: Ac-ACYMEWCDVTDYGCK-NH2 / III: Ac-ACYMEWCDVTDYGCK-NH2 (linker I:2-I:7-I:14, II:2-II:7-II:14, III:2-III:7-III:14 via TATA; linker I:15-II:15-III:15 via X3) [BCY5461] | 230 nM
239 nM | – | – | I: Ac-ACYMEWCDVTDYGCK-NH2 / II: Ac-ACYMEWCDVTDYGCK-NH2 / III: Ac-ACYMEWCDVTDYGCK-NH2 (linker I:2-I:7-I:14, II:2-II:7-II:14, III:2-III:7-III:14 via TATA; linker I:15-II:15-III:15 via X4) [BCY5460] | –
